The subject of assay [1] is Escherichia coli. The assay is described as follows: Antibacterial activity against Escherichia coli K-12 at 30 ug/disc after 24 hr by filter paper disk method. The assay is classed as functional. The note with it: K-12, 24 h, read-out: DIZ.
In assay [2] the test system is Aspergillus niger. The assay is described as follows: Antifungal activity against Aspergillus niger at 100 ug/ml after 72 hr. The format is functional. The note with it: for zone of inhibition at 100 µg/mL: read-out: DIZ.
The subject of assay [3] is Salmonella typhimurium. The assay is described as follows: Antibacterial activity against Salmonella enterica subsp. enterica serovar Typhimurium MTCC 98 at 30 ug/disc after 24 hr by filter paper disk method. The format is functional. The note with it: MTCC 98, 24 h, read-out: DIZ.
Assay [4] concerns Bacillus subtilis. The assay can be described thus: Antibacterial activity against Bacillus subtilis MTCC 121 at 30 ug/disk after 24 hr by filter paper disk method. The assay is classed as functional. Particulars: MTCC 121, 24 h, read-out: DIZ.
In a further assay the test system is Candida albicans. The assay can be described thus: Antifungal activity against Candida albicans IOA-109 at 100 ug/ml after 18 to 48 hr. The format is functional. Particulars: for zone of inhibition at 100 µg/mL: read-out: DIZ.
Assay [5] concerns Aspergillus fumigatus. The assay can be described thus: Antifungal activity against Aspergillus fumigatus at 100 ug/ml after 72 hr. The format is functional. The note with it: for zone of inhibition at 100 µg/mL: read-out: DIZ.
In assay [6] the test system is Staphylococcus aureus. The assay can be described thus: Antibacterial activity against Staphylococcus aureus SA 22 at 30 ug/disc after 24 hr by filter paper disk method. The format is functional. Particulars: SA 22, 24 h, read-out: DIZ.
For assay [7], the system named is Escherichia coli. The assay is described as follows: Antibacterial activity against Escherichia coli K-12 at 100 ug/ml after 24 hr by filter paper disk method. Particulars: for zone of inhibition at 100 µg/mL: K-12, 24 h, read-out: DIZ. The assay is classed as functional.
The subject of assay [8] is Bacillus subtilis. The assay is described as follows: Antibacterial activity against Bacillus subtilis MTCC 121 at 100 ug/ml after 24 hr by filter paper disk method. The format is functional. Particulars: for zone of inhibition at 100 µg/mL: MTCC 121, 24 h, read-out: DIZ.
Assay [9] has as its system Salmonella typhimurium. The assay can be described thus: Antibacterial activity against Salmonella enterica subsp. enterica serovar Typhimurium MTCC 98 at 100 ug/ml after 24 hr by filter paper disk method. The format is functional. The note with it: for zone of inhibition at 100 µg/mL: MTCC 98, 24 h, read-out: DIZ.
Assay [10] has as its system Staphylococcus aureus. The assay can be described thus: Antibacterial activity against Staphylococcus aureus SA 22 at 100 ug/ml after 24 hr by filter paper disk method. The assay is classed as functional. Particulars: for zone of inhibition at 100 µg/mL: SA 22, 24 h, read-out: DIZ.
Assay [11] concerns Aspergillus fumigatus. The assay is described as follows: Antifungal activity against Aspergillus fumigatus at 30 ug/disk after 72 hr. The format is functional, organism-based.
Assay [12] deals with Aspergillus niger. The assay can be described thus: Antifungal activity against Aspergillus niger at 30 ug/disk after 72 hr. The format is functional, organism-based.

Activity calls are given as the source filed them. The calls are words filed in the database; no cut-off is given here.

As to `O=C(N[C@H](CO)[C@H](O)c1ccc([N+](=O)[O-])cc1)C(Cl)Cl` [CHLORAMPHENICOL], the zone of inhibition at 30 µg/disc in the assay with Escherichia coli [1] worked out at 25 mm; in the assay with Salmonella typhimurium [3] it was 20 mm; with Bacillus subtilis [4], 24 mm; in the assay on Staphylococcus aureus [6] it was 26 mm. Further, the “diameter of the inhibition zone (DIZ)” value in the assay with Aspergillus niger [2], in the assay on Candida albicans and in the assay on Aspergillus fumigatus [5] was “inactive” each time.
As for `CN1C(=O)C(C(=O)C(Br)C(Br)c2coc3ccccc3c2=O)C(=O)N(C)C1=O` (stereo not given), the “diameter of the inhibition zone (DIZ)” value in the assay with Aspergillus niger [2], in the assay with Bacillus subtilis [8] and in the assay on Aspergillus fumigatus [5] was “inactive” throughout. Further, the zone of inhibition at 100 µg/mL in the assay with Escherichia coli [7] was found to be 14 mm; in the assay with Candida albicans, 15 mm; with Salmonella typhimurium [9], 16 mm; in the assay with Staphylococcus aureus [10], 8 mm.
For the compound `Cc1ccc2occ(C3CC(C4C(=O)N(C)C(=O)N(C)C4=O)=NN3)c(=O)c2c1` (stereo not given), the “diameter of the inhibition zone (DIZ)” value in the assay with Aspergillus niger [2] was “inactive”. Moreover, the zone of inhibition at 100 µg/mL in the assay on Escherichia coli [7] worked out at 12 mm; in the assay on Candida albicans, 17 mm; in the assay on Bacillus subtilis [8], 13 mm; with Aspergillus fumigatus [5], 10 mm; in the assay on Salmonella typhimurium [9], 10 mm; in the assay with Staphylococcus aureus [10], 11 mm.
Turning to NYSTATIN, the inhibition zone (IZ) with Aspergillus fumigatus [11] and in the assay on Aspergillus niger [12] was 18 mm each time. For the same compound, the “diameter of the inhibition zone (DIZ)” value in the assay with Escherichia coli [7], in the assay with Bacillus subtilis [8], with Salmonella typhimurium [9] and in the assay on Staphylococcus aureus [10] was “inactive” throughout.
Turning to `CN1C(=O)C(C2=NN(c3ccccc3)C(c3coc4ccccc4c3=O)C2)C(=O)N(C)C1=O` (stereo not given), the “diameter of the inhibition zone (DIZ)” value in the assay on Aspergillus niger [2], in the assay with Bacillus subtilis [8] and with Staphylococcus aureus [10] was “inactive” each time. Also, the zone of inhibition at 100 µg/mL was found to be 8 mm with Escherichia coli [7], 15 mm with Candida albicans, 12 mm in the assay on Aspergillus fumigatus [5] and 12 mm in the assay on Salmonella typhimurium [9].
With `CN1C(=O)C(c2cc(-c3coc4ccccc4c3=O)[nH]n2)C(=O)N(C)C1=O`, the “diameter of the inhibition zone (DIZ)” value in the assay with Aspergillus niger [2], in the assay with Candida albicans and in the assay with Aspergillus fumigatus [5] was “inactive” in each case. The zone of inhibition at 100 µg/mL in the assay on Escherichia coli [7] is 12 mm; in the assay on Bacillus subtilis [8], 12 mm; in the assay on Salmonella typhimurium [9], 12 mm; in the assay on Staphylococcus aureus [10], 14 mm.
For the compound `Cc1ccc2occ(/C=C/C(=O)C3C(=O)N(C)C(=O)N(C)C3=O)c(=O)c2c1`, the zone of inhibition at 100 µg/mL worked out at 12 mm with Aspergillus niger [2]; 20 mm in the assay on Escherichia coli [7]; 12 mm in the assay with Candida albicans; 16 mm with Bacillus subtilis [8]; 14 mm with Aspergillus fumigatus [5]; 12 mm with Salmonella typhimurium [9]. The zone of inhibition at 100 µg/mL in the assay with Staphylococcus aureus [10] was 12 mm.
With `CN1C(=O)C(C2=NC(=O)NC(c3coc4ccccc4c3=O)C2)C(=O)N(C)C1=O` (stereo not given), the “diameter of the inhibition zone (DIZ)” value in the assay on Aspergillus niger [2], in the assay with Candida albicans, in the assay with Bacillus subtilis [8] and in the assay on Aspergillus fumigatus [5] was “inactive” in each case. For the same compound, the results for the zone of inhibition at 100 µg/mL in the assay with Escherichia coli [7], in the assay on Salmonella typhimurium [9] and in the assay on Staphylococcus aureus [10] were 15 mm, 11 mm and 8 mm, respectively.
`Cc1ccc2occ(C(Br)C(Br)C(=O)C3C(=O)N(C)C(=O)N(C)C3=O)c(=O)c2c1` (stereo not given): the “diameter of the inhibition zone (DIZ)” value in the assay on Aspergillus niger [2], in the assay on Bacillus subtilis [8] and in the assay on Aspergillus fumigatus [5] was “inactive” throughout. Moreover, the zone of inhibition at 100 µg/mL with Escherichia coli [7] is 15 mm; in the assay with Candida albicans, 17 mm; with Salmonella typhimurium [9], 10 mm; with Staphylococcus aureus [10] it was 12 mm.
Regarding `CN1C(=O)C(C(=O)/C=C/c2coc3ccccc3c2=O)C(=O)N(C)C1=O`, the zone of inhibition at 100 µg/mL in the assay with Aspergillus niger [2] came out at 8 mm; with Escherichia coli [7] it was 20 mm; in the assay on Candida albicans it was 16 mm; in the assay on Bacillus subtilis [8], 20 mm; in the assay with Aspergillus fumigatus [5] it was 10 mm; in the assay on Salmonella typhimurium [9], 16 mm. In addition, in the assay with Staphylococcus aureus [10], the zone of inhibition at 100 µg/mL was 15 mm.
As for `CN1C(=O)C(C2=NN(c3nc4ccccc4s3)C(c3coc4ccccc4c3=O)C2)C(=O)N(C)C1=O` (stereo not given), the zone of inhibition at 100 µg/mL with Aspergillus niger [2] turned out to be 14 mm; with Escherichia coli [7], 18 mm; in the assay with Candida albicans, 14 mm; in the assay on Bacillus subtilis [8] it was 10 mm; in the assay on Salmonella typhimurium [9], 9 mm; in the assay with Staphylococcus aureus [10] it was 13 mm. Further, the “diameter of the inhibition zone (DIZ)” value in the assay on Aspergillus fumigatus [5] is “inactive”.
Regarding `CN1C(=O)C(C2=NNC(c3coc4ccccc4c3=O)C2)C(=O)N(C)C1=O` (stereo not given), the zone of inhibition at 100 µg/mL in the assay with Aspergillus niger [2] amounted to 8 mm; in the assay on Escherichia coli [7] it was 15 mm; with Candida albicans it was 14 mm; with Bacillus subtilis [8], 13 mm; in the assay with Aspergillus fumigatus [5], 14 mm; in the assay on Salmonella typhimurium [9] it was 12 mm. Besides, the zone of inhibition at 100 µg/mL with Staphylococcus aureus [10] was found to be 16 mm.
In the case of `Cc1ccc2occ(C3CC(C4C(=O)N(C)C(=O)N(C)C4=O)=NN3c3ccccc3)c(=O)c2c1` (stereo not given), the “diameter of the inhibition zone (DIZ)” value in the assay with Aspergillus niger [2], in the assay on Escherichia coli [7], with Bacillus subtilis [8], in the assay on Aspergillus fumigatus [5] and in the assay on Staphylococcus aureus [10] was “inactive” each time. The zone of inhibition at 100 µg/mL with Candida albicans is 15 mm; with Salmonella typhimurium [9], 19 mm.
